Source: patent US10806694B2, “Nanoparticles for photodynamic therapy, X-ray induced photodynamic therapy, radiotherapy, radiodynamic therapy, chemotherapy, immunotherapy, and any combination thereof” (The University of Chicago, priority 2014, dated 2020)

Tests used:
[1] = Fluorescence lifetime by Time-Correlated Single Photon Counting; fluorescence intensity; type: physicochemical
Experimental: The fluorescence spectra of H2DBP ligand and DBP-UiO NMOF were taken on a spectrofluorophotometer (RF-5301PC, Shimadzu Corporation, Kyoto, Japan).
Time-domain lifetimes were measured on a ChronosBH lifetime fluorimeter (ISS, Inc., Champaign, Ill., United States of America) using Time-Correlated Single Photon Counting (TCSPC) methods. The fluorimeter contained Becker-Hickl SPC-130 detection electronics and an HPM-100-40 Hybrid PMT detector. Tunable picosecond pulsed excitation was provided by a Fianium SC400-2 supercontiuum laser source with integrated pulse picker and AOTF. Emission wavelengths were selected with bandpass filters (Semrock and Chroma). The Instrument Response Function (IRF) was measured to be approximately 120 ps FWHM in a 1% scattering solution of Ludox LS colloidal silica. Lifetimes were fit via a forward convolution method in the Vinci control and analysis software.
Fluorescence spectra of suspensions of Hf-MOF (0.04 mM of L ligand) in water, DMF, and THF were taken with an excitation wavelength of 368.8 nm. […] Fluorescence lifetimes of Hf-MOF, Zr-MOF, and H2L suspensions in water were also examined.

[2] = Singlet oxygen generation with Singlet Oxygen Sensor Green (SOSG) under LED irradiation; type: physicochemical; conditions: for k (fitting parameter for 1O2 generation curve): 0.1 W/cm^2, 650 nm LED for DBC-UiO and H2DBC, 640 nm for the others
Experimental: A light-emitting diode (LED) array with peak emission at 640 nm was used as the light source of singlet oxygen generation. The irradiance of LED is 100 mW/cm^2. Singlet oxygen sensor green (SOSG) reagent (Life Technologies, Carlsbad, Calif., United States of America) was employed for the detection of singlet oxygen. H2DBP and DBP-UiO samples were prepared in 5 μM solutions/suspensions in HBSS buffer (for DBP-UiO samples, the concentration was calculated as ligand equivalents). To 2 mL each of these solutions/suspensions, SOSG stock solution (5 μL at 5 mM) was added (final concentration=12.5 μM) before fluorescence measurement.
For a typical measurement, fluorescence intensity was acquired on a spectrofluorophotometer (RF-5301PC, Shimadzu Corporation, Kyoto, Japan) with excitation at 504 nm and emission at 525 nm (slit width 3 nm/5 nm for ex/em). Fluorescence was measured after irradiation by LED for 0 (as background), 10 s, 20 s, 30 s, 1 min, 1.5 min, 2 min, 2.5 min, 3 min, 3.5 min, 4 min, 4.5 min, 5 min, 6 min and 7 min.
Singlet oxygen generation efficiencies of H2DBP and DBP-UiO were determined using Singlet Oxygen Sensor Green (SOSG, Life Technologies). After exposure to a LED light source (peak emission at 640 nm, energy irradiance of 100 mW/cm^2), the […] reagent SOSG reacted with ^1O2 to generate green fluorescence which was quantified with a fluorimeter. The fluorescence intensity was plotted against irradiation time. […] The ^1O2 generation curve was fitted with the following equation: IF=A(1−e^−kt) (1) Where IF is fluorescence intensity and t represents irradiation time while A and k are fitting parameters (for detailed derivations, see SI). […]
Singlet Oxygen Sensor Green (SOSG) was employed to determine ^1O2 generation efficiencies of H2DBC and DBC-UiO. SOSG reacted with generated ^1O2 to give green fluorescence (λem=525 nm) that was quantified with a fluorometer. For comparison, ^1O2 generation efficiency of H2DBP, DBP-UiO and protoporphyrin IX (PpIX) were also determined. […]

[3] = UV-visible absorption, extinction coefficient; type: physicochemical
Experimental: The UV-visible absorption spectra of H2DBP and DBP-UiO were acquired with a UV-vis spectrophotometer (UV-2401 PC, Shimadzu Corporation, Kyoto, Japan). The H2DBP solution and DBP-UiO NMOF suspension were prepared in 0.67 mM phosphate buffer saline (PBS). The absorption of standard solutions of H2DBP at concentrations of 0.2, 0.4, 0.6, 0.8, 1, 1.5, 4 and 8 mg/L were acquired and the standard curve was plotted by linear fitting of the absorbance at 402 nm. The extinction coefficients of H2DBP at 402 nm and 619 nm are 2.2×10^5 and 1.7×10^3 M^−1cm^−1, respectively.
UV-visible absorption spectroscopy confirmed the photophysical properties of chlorin-based PSs. H2DBC has a split Soret band at λmax=408 nm and four Q-bands at 504, 534, 591, and 643 nm. […] The lowest energy Q-band of DBC-UiO has thus red-shifted by 13 nm from DBP-UiO, with an ε value of 24600 M^−1·cm^−1. H2DBC has an ε value of 21800 M^−1·cm^−1 for the lowest energy Q-band.

[4] = system: subcutaneous flank tumor mouse model of CT26; assay: In vivo PDT anticancer efficacy; parameters: species or system mice; conditions: ligand dose 1 mg/kg intratumoral, 90 J/cm^2, two treatments
Experimental: (§1) In vivo anticancer efficacy experiments on subcutaneous flank tumor mouse models of CT26 and HT29 were performed. The mice were intratumorally injected with (1) PBS control, (2) DBC-UiO, (3) DBP-UiO, (4) H2DBC, or (5) H2DBP at a ligand dose of 1 mg/kg or (6) DBC-UiO at a ligand dose of 3.5 mg/kg. Twelve hours post injection, each mouse in group (1)-(5) was irradiated at the tumor site with light (0.1 W/cm^2) for 15 min (90 J/cm^2) and the mice in group (6) received light irradiation (0.1 W/cm^2) for 30 min (180 J/cm^2). For (1) to (5) groups on the CT26 model, mice are treated again 4 days after first treatment, while for (1) to (5) groups on HT29 model, mice are treated every 4 days for total 4 treatments.

[5] = system: subcutaneous flank tumor mouse model of HT29; assay: In vivo PDT anticancer efficacy; parameters: species or system mice; conditions: ligand dose 1 mg/kg intratumoral, 90 J/cm^2, four treatments
Experimental: as §1

Compound: 5, 15-di(p-benzoato)chlorin [H2DBC]
- μ1 ([1]; in DMF): 8.27 ns
- μ1 ([1]; in HBSS): 5.80 ns
- μ2 ([1]; in HBSS): 8.77 ns
- τ ([1]; in HBSS): 8.15 ns
- k (fitting parameter for 1O2 generation curve) [2]: 0.25 min⁻¹
- ε value of the lowest energy Q-band [3]: 21800 M⁻¹ cm⁻¹
- tumor growth [4]: failed to suppress the tumor growth
- tumor growth [5]: failed to suppress the tumor growth

Compound: O=C(O)c1ccc(-c2c3nc(cc4ccc([nH]4)c(-c4ccc(C(=O)O)cc4)c4nc(cc5ccc2[nH]5)C=C4)C=C3)cc1 [H2DBP, 5,15-di(p-benzoato)porphyrin]
- μ1 ([1]; aq): 12.4 ns
- μ2 ([1]; aq): 7.86 ns
- τ ([1]; aq): 10.9 ns
- μ1 ([1]; in DMF): 11.3 ns
- k (singlet oxygen generation rate) ([2]; 5 μM in HBSS, 640 nm LED 100 mW/cm^2, listed as DBP): 0.0015 s⁻¹
- k (fitting parameter for 1O2 generation curve) [2]: 0.06 min⁻¹
- extinction coefficient at 402 nm ([3]; PBS): 220000 M⁻¹ cm⁻¹
- extinction coefficient at 619 nm ([3]; PBS): 1700 M⁻¹ cm⁻¹
- tumor growth [4]: failed to suppress the tumor growth
- tumor growth [5]: failed to suppress the tumor growth
